Measurements taken from patent US11629333B2, “Gamma delta T cells and a method of augmenting the tumoricidal activity of the same” (Agency for Science, Technology and Research, priority 2017, dated 2023).

Tests used:
Human PBMCs = experiment: Expansion of Vγ9Vδ2 T cells from PBMCs, cell frequencies by flow cytometry; assay type: cell-based
From the text: FIGS. 1A to 1D (collectively referred to as “FIG. 1”) show the characterization of the cells expanded with Zometa, OKT3 and gamma-irradiated K562 aAPCs. Human PBMCs were first expanded with Zometa for 7 days, followed by treatment with Zometa, OKT3 and gamma-irradiated K562 aAPCs for another 10 days. Frequencies of Vγ9Vδ2 T cells (FIG. 1A), NKG2D-positive cells (FIG. 1B), CD3-positive alpha beta T cells (FIG. 1C) and CD3-negative, CD56-positive NK cells (FIG. 1D) in PBMCs, on day 7 and day 17 analyzed by flow cytometry are shown. PBMC samples from 7 donors were tested and each sample is represented by one line.
Human PBMC were isolated from fresh buffy coat of healthy donors by density gradient centrifugation using Ficoll-Paque (GE Healthcare, Milwaukee, Wis.). Human myelogenous leukemia cell line K562 (ATCC) and a K562-based aAPC cell line genetically engineered for stable expression of EGFP, CD86, CD64 and 4-1BBL (Du et al., 2016) were cultured in IMDM (Lonza Biotech, Basel, Switzerland) supplemented with 10% FBS. Other tumor cell lines used in the present invention were cultured in DMEM supplemented with 10% FBS.
(§1) For Vγ9Vδ2 T cell activation and expansion, PBMCs were seeded at a density of 2E6 cells/ml in AIM-V (Life Technologies) supplemented with 5% human AB serum (Valley Biomedical, Winchester, Va.). Zometa (5 μM, Sigma Aldrich, St. Louis, Mo.) and IL-2 (300 IU/ml) were added on day 0, followed by adding 50 ng/ml anti-CD3 antibody (OKT3 clone, eBioscience, San Diego, Calif.), gamma irradiated K562 aAPCs at a 100:1 ratio, 300 IU/ml IL-2, and 5 μM Zometa from day 7 onwards. […] The culture medium was refreshed every 2 to 3 days. In other words, the cells were passaged every 2 to 3 days.

[1] = test system: CTLA-4, PD1, LAG3, TIGIT, TIM3, and BTLA; experiment: Expression of co-inhibitory receptors on PBMCs and expanded cells by flow cytometry; assay type: cell-based, human
From the text: FIGS. 2A to 2F (collectively referred to as “FIG. 2”) show the expression of co-inhibitory receptors CTLA-4 (FIG. 2A), PD-1 (FIG. 2B), LAG-3 (FIG. 2C), TIGIT (FIG. 2D), TIM-3 (FIG. 2E) and BTLA (FIG. 2F) on PBMCs and the expanded cells. Human PBMCs were first expanded with Zometa for 7 days, followed by treatment with Zometa, OKT3 and gamma-irradiated K562 aAPCs for another 10 days. The expression frequencies of 6 co-inhibitory receptors on PBMCs and on the expanded cells collected on day 7 and day 17 analyzed by flow cytometry are shown. PBMC samples from 7 donors were tested and each sample is represented by one line.
as §1
In view of the important roles of co-inhibitory receptors in cancer therapy, the expression of six of them, namely, CTLA-4, PD1, LAG3, TIGIT, TIM3, and BTLA, on the Zometa-expanded Vγ9Vδ2 T cells was examined using flow cytometry (FIG. 2).

[2] = test system: SW480 human colon carcinoma cells, HepG2 human hepatocarcinoma cells, U87 human glioblastoma cells and SKOV3 human ovarian cancer cells; experiment: Delfia EuTDA cytotoxicity assay, tumor cells with or without Zometa pre-treatment; assay type: cell-based; conditions: 1 μM Zometa pre-treatment of tumor cells
Description: Target tumor cells tested were SW480 human colon carcinoma, HepG2 human hepatocarcinoma cells, U87 human glioblastoma cells and SKOV3 human ovarian cancer cells. Tumor cells were either pre-treated with 1 μM Zometa or without Zometa treatment. Effector used are indicated. Delfia EuTDA cytotoxicity assay (3 hours EuTDA culturing) was used to assess tumor cell lysis efficiency at an effector to target ratio of 10:1. The results of one representative experiment out of three are shown.
The cytolytic activity of CAR-modified Vγ9Vδ2 T cells was examined with a non-radioactive method (DELFIA EuTDA Cytotoxicity Reagents kit, PerkinElmer, MA). Time-resolved fluorescence was measured in Victor3 multilabel plate counter (PerkinElmer). The effector to target (E:T) ratios used ranged from 20:1 to 2.5:1. Control groups were set up to measure spontaneous release (only target cells added), maximum release (target cells added with 10 μl lysis buffer), and medium background (no cell added). Killing efficacy was calculated by using the following formula: […]
Zometa treatment was used because Zometa can increase intracellular levels of IPP, thereby increasing the sensitivity of tumor cells to Vγ9Vδ2 T cells.

[3] = PBMCs treated with Zometa, day 7
[4] = 7 days after Zometa treatment, all 7 samples

## O=P(O)(O)C(O)(Cn1ccnc1)P(=O)(O)O [Zometa, zoledronic acid]
Human PBMCs; PBMCs treated with 5 μM Zometa, day 0 to day 7
  NKG2D-positive cell population: increase
Human PBMCs; PBMCs treated with 5 μM Zometa, day 7
  Vγ9Vδ2 T-cell population: ~90%
Human PBMCs; [3]
  proportion of NK cells: less than 3%
  proportion of αβ T cells: less than 10%
[1]; [4]
  CTLA-4-expressing cells: significant increase
  LAG3-expressing cells: significant increase
  TIGIT-expressing cells: significant increase
  TIM3-expressing cells: significant increase
[1]; 7 days after Zometa treatment, remaining samples (one sample increased, one decreased)
  frequency of PD1-positive cells: minor increase or no change
[1]; Zometa treatment for 7 days
  BTLA expression: reduced
[2]; HepG2
  sensitivity of HepG2 cells towards Vγ9Vδ2 T cells: not
[2]; SKOV3
  sensitivity of SKOV3 cells towards Vγ9Vδ2 T cells: significantly increased
[2]; SW480
  sensitivity of SW480 cells towards Vγ9Vδ2 T cells: significantly increased
[2]; U87
  sensitivity of U87 cells towards Vγ9Vδ2 T cells: significantly increased
